These results are taken from BindingDB's records for doi:10.1016/j.bioorg.2015.02.008 (University of Strasburg, 2015).

As usually defined, the IC50 is the midpoint of a concentration-inhibition curve.

The test deals with T1, 1-deoxy-D-xylulose 5-phosphate reductoisomerase (Escherichia coli (strain K12), UniProt P45568).
T1 sequence (P45568 whole entry): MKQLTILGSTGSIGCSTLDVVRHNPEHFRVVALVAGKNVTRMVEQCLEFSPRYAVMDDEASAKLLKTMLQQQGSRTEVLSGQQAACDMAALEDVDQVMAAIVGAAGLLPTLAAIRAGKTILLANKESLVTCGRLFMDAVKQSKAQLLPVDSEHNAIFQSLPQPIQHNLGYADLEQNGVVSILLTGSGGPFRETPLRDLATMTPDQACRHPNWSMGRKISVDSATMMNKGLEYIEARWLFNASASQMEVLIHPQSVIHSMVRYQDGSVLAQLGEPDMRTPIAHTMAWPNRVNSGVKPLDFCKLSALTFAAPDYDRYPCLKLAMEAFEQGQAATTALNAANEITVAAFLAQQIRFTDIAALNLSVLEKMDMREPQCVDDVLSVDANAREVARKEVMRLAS
In words: DXR Inhibition Assay. Here is the method: H-DXR was pre-incubated during 2 min in the presence of the inhibitors at different concentrations and DXP (480 µM). NADPH (160 µM final concentration) was then added to measure the residual activity. The flavonoids are poorly soluble in water. Flavonoids solutions at different concentrations were prepared in DMSO by serial dilutions from 100 mM stock solutions. […] The inhibition mechanism of myricetin was studied by preincubating H-DXR with DXP at varied concentrations (96 480 µM) and fixed concentrations of myricetin (0.5, 1 and 2 µM). The enzymatic reaction was initiated by NADPH (final concentration160 µM). Fosmidomycin was used as a positive reference.
With `O=c1c(O)c(-c2cc(O)c(O)c(O)c2)oc2cc(O)cc(O)c12`, the IC50 turned out to be 1.5 µM.
The figure for `O=c1cc(-c2ccccc2)oc2cc(O)c(O)c(O)c12` is 2.2 µM; for `O=c1c(O)c(-c2ccc(O)c(O)c2)oc2cc(O)cc(O)c12` [2-(3,4-dihydroxyphenyl)-3,5,7-trihydroxy-chromone;hydrate] it is 1.9 µM.
The figure for `O=c1c(O)c(-c2ccc(O)c(O)c2)oc2cc(O)ccc12` [2-(3,4-dihydroxyphenyl)-3,7-dihydroxy-chromen-4-one] is 3.5 µM; for `O=c1cc(-c2ccc(O)c(O)c2)oc2cc(O)cc(O)c12` [2-(3,4-dihydroxyphenyl)-5,7-dihydroxy-4H-chromen-4-one] it is 3.4 µM.
